Data: US20170252442A1, “PHOTOHEXER COMPOUNDS AND PHARMACEUTICAL COMPOSITION AND USE THEREOF” (RAINBOW PHARMATECH LLC, priority 2014, published 2017)

Assays:
SW-480 cells = test: MTT assay, photodynamic therapy on SW-480 cells; assay type: cell-based, human
Text: (§1) The cells in logarithmic growth phase were collected and inoculated on 24-well culture plates. When reaching 70%-80% confluence, cells were divided randomly into the following groups: control (the parallel control group without photosensitizer and irradiation), irradiation (irradiation treatment alone without photosensitizer); (photosensitizer treatment alone without irradiation), photodynamic treatment (treatment by photosensitizer in combination with irradiation). For the photosensitizer alone treatment group and photodynamic treatment group, an appropriate amount of Photohexer-1 (P-1) or Photohexer-2 (P-2) was respectively added away from light to give a final concentration of 0.8, 1.6, 3.2, 6.4 μM. Each group set 3 replicates. Cells were incubated with the active agent, different treatments were carried out according to the grouping. […] After treatment and digestion of each group of cells, it was inoculated into a 96-well plate at 100 μL/well, and four wells were set for each treatment. MTT assay was performed after 24 h from inoculation: 20 μL MTT solution was added to each well under the condition away from light, and the culture was continued for 4 hours. 150 μL DMSO was added to each well after discarding the supernatant. After 15 min of dissolution, the absorbance value (OD value) was measured using a microplate reader and the relative survival rate of cells was calculated according to the following formula: […]

SW-620 cells = test: MTT assay, photodynamic therapy on SW-620 cells; assay type: cell-based, human
Text: as §1

Caco2 cells = test: MTT assay, photodynamic therapy on Caco2 cells; assay type: cell-based, human
Text: as §1

MCF-7/ADR cells = test: MTT assay, photodynamic therapy on MCF-7/ADR cells; assay type: cell-based, human
Text: as §1

CT26 cells = test: MTT assay, photodynamic therapy on CT26 cells; assay type: cell-based, murine
Text: as §1

7721 cells = test: MTT assay, photodynamic therapy on 7721 cells; assay type: cell-based, human
Text: as §1

4T1 transplanted tumors = test: Tumor-inhibition effect of P1 and P2-PDT on 4T1 xenografted mice; assay type: in vivo, Balb/c mice; conditions: for tumor inhibition rate: day 22 after treatment
Procedure: Experimental groups: blank control (2 mice), P-1 alone treatment (4 mg/kg, 8 mice), P-2 alone treatment (2 mg/kg, 8 mice), P-1 treatment (2 mg/kg, 4 mg/kg, 8 mice/group) combined with light irradiations, P-2 treatment (1 mg/kg, 2 mg/kg, 4 mg/kg, 8 mice/group) combined with light irradiations, 66 Balb/c mice in total.

[1] = Solubility determination in water; assay type: physicochemical; conditions: each ml of water; room temperature; read-out: solubility in water (amount dissolved by each ml of water)
Procedure: The solubility of Photohexer-1 and Photohexer-2 in water was determined by conventional methods in the art.

[2] = Storage stability determination; assay type: physicochemical; conditions: 3 months of storage in dark at 2-4
Procedure: The storage stability of Photohexer-1 and Photohexer-2 was determined by conventional methods in the art.

[3] = 0.8 μM alone treatment, without irradiation
[4] = 0.8 μM combined with 2.6 J/cm^2 light irradiation
[5] = 0.8 μM combined with 5.2 J/cm^2 light irradiation
[6] = 0.8 μM combined with 10.4 J/cm^2 light irradiation
[7] = 1.6 μM alone treatment, without irradiation
[8] = 1.6 μM combined with 2.6 J/cm^2 light irradiation
[9] = 1.6 μM combined with 5.2 J/cm^2 light irradiation
[10] = 1.6 μM combined with 10.4 J/cm^2 light irradiation
[11] = 3.2 μM alone treatment, without irradiation
[12] = 3.2 μM combined with 2.6 J/cm^2 light irradiation
[13] = 3.2 μM combined with 5.2 J/cm^2 light irradiation
[14] = 3.2 μM combined with 10.4 J/cm^2 light irradiation
[15] = 6.4 μM alone treatment, without irradiation
[16] = 6.4 μM combined with 2.6 J/cm^2 light irradiation
[17] = 6.4 μM combined with 5.2 J/cm^2 light irradiation
[18] = 6.4 μM combined with 10.4 J/cm^2 light irradiation

For `C=Cc1c(C)c2cc3nc(cc4[nH]c(cc5nc(cc1[nH]2)C(C)=C5C(C)OCCCCCC)c(C)c4CCC(=O)[O-])C(CCC(=O)[O-])=C3C.[Na+].[Na+]` (stereo not shown) [Photohexer P-2, 4-(1-hexyloxyethyl)-6,7-bis(propionatesodium)-1,3,5,8-tetramethyl-2-vinylporphyrin], the “photodynamic activity compared between P-1 and P-2” value (SW-480 cells) was “better activity than P-1”, the Cell survival rate (SW-480 cells; [3]) was 101.79 ± 4.08% and the Cell survival rate (SW-480 cells; [4]) was 100.79 ± 3.76%. It also gave a Cell survival rate (SW-480 cells; [5]) of 96.70 ± 3.63%, a Cell survival rate (SW-480 cells; [6]) of 94.70 ± 4.16% and a Cell survival rate (SW-480 cells; [7]) of 96.97 ± 4.27%. For the same compound, the Cell survival rate (SW-480 cells; [8]) was 91.72 ± 2.89%, the Cell survival rate (SW-480 cells; [9]) was 87.06 ± 2.51% and the Cell survival rate (SW-480 cells; [10]) was 75.11 ± 3.24%. The Cell survival rate (SW-480 cells; [11]) was 68.15 ± 2.78%, the Cell survival rate (SW-480 cells; [12]) was 63.40 ± 2.24% and the Cell survival rate (SW-480 cells; [13]) was 53.01 ± 1.99%. For the same compound, the Cell survival rate (SW-480 cells; [14]) was 43.68 ± 2.54%, the Cell survival rate (SW-480 cells; [15]) was 57.31 ± 2.33% and the Cell survival rate (SW-480 cells; [16]) was 45.36 ± 1.22%. The Cell survival rate (SW-480 cells; [17]) was 42.56 ± 1.06%, the Cell survival rate (SW-480 cells; [18]) was 27.83 ± 1.13% and the Cell survival rate (SW-620 cells; [3]) was 101.79 ± 4.27%. It also gave a Cell survival rate (SW-620 cells; [4]) of 97.58 ± 3.86%, a Cell survival rate (SW-620 cells; [5]) of 96.11 ± 4.06% and a Cell survival rate (SW-620 cells; [6]) of 92.99 ± 3.86%. It also gave a Cell survival rate (SW-620 cells; [7]) of 96.58 ± 3.66%, a Cell survival rate (SW-620 cells; [8]) of 94.77 ± 2.99% and a Cell survival rate (SW-620 cells; [9]) of 90.19 ± 3.18%. It also gave a Cell survival rate (SW-620 cells; [10]) of 84.95 ± 3.02%, a Cell survival rate (SW-620 cells; [11]) of 93.16 ± 2.71% and a Cell survival rate (SW-620 cells; [12]) of 89.07 ± 2.34%. It also gave a Cell survival rate (SW-620 cells; [13]) of 82.00 ± 2.62%, a Cell survival rate (SW-620 cells; [14]) of 68.54 ± 2.77% and a Cell survival rate (SW-620 cells; [15]) of 85.21 ± 1.03%. It also gave a Cell survival rate (SW-620 cells; [16]) of 66.83 ± 1.12%, a Cell survival rate (SW-620 cells; [17]) of 58.46 ± 1.23% and a Cell survival rate (SW-620 cells; [18]) of 47.12 ± 1.04%. It also gave a Cell survival rate (Caco2 cells; [3]) of 99.09 ± 4.27%, a Cell survival rate (Caco2 cells; [4]) of 98.47 ± 3.69% and a Cell survival rate (Caco2 cells; [5]) of 98.57 ± 4.26%. The Cell survival rate (Caco2 cells; [6]) was 73.07 ± 3.86%, the Cell survival rate (Caco2 cells; [7]) was 98.50 ± 3.63% and the Cell survival rate (Caco2 cells; [8]) was 88.31 ± 2.67%. It also gave a Cell survival rate (Caco2 cells; [9]) of 77.26 ± 3.66%, a Cell survival rate (Caco2 cells; [10]) of 58.33 ± 2.60% and a Cell survival rate (Caco2 cells; [11]) of 94.12 ± 2.54%. It also gave a Cell survival rate (Caco2 cells; [12]) of 75.55 ± 2.01%, a Cell survival rate (Caco2 cells; [13]) of 63.08 ± 2.35% and a Cell survival rate (Caco2 cells; [14]) of 47.94 ± 2.31%. The Cell survival rate (Caco2 cells; [15]) was 88.45 ± 1.44%, the Cell survival rate (Caco2 cells; [16]) was 64.87 ± 1.13% and the Cell survival rate (Caco2 cells; [17]) was 43.88 ± 1.14%. The Cell survival rate (Caco2 cells; [18]) was 37.06 ± 1.54%, the “killing effect of photodynamic therapy” value (Caco2 cells; dependent on concentration and light intensity) was “good killing effect” and the “cell toxicity” value (MCF-7/ADR cells) was “significant cell toxicity”. For the same compound, the Cell survival rate (MCF-7/ADR cells; [3]) was 96.93 ± 4.47%, the Cell survival rate (MCF-7/ADR cells; [4]) was 94.88 ± 3.94% and the Cell survival rate (MCF-7/ADR cells; [5]) was 92.76 ± 4.32%. It also gave a Cell survival rate (MCF-7/ADR cells; [6]) of 90.99 ± 4.36%, a Cell survival rate (MCF-7/ADR cells; [7]) of 92.26 ± 3.26% and a Cell survival rate (MCF-7/ADR cells; [8]) of 74.79 ± 2.77%. The Cell survival rate (MCF-7/ADR cells; [9]) was 67.82 ± 3.12%, the Cell survival rate (MCF-7/ADR cells; [10]) was 54.66 ± 3.43% and the Cell survival rate (MCF-7/ADR cells; [11]) was 53.84 ± 2.58%. The Cell survival rate (MCF-7/ADR cells; [12]) was 50.37 ± 2.13%, the Cell survival rate (MCF-7/ADR cells; [13]) was 48.99 ± 2.16% and the Cell survival rate (MCF-7/ADR cells; [14]) was 46.57 ± 2.76%. The Cell survival rate (MCF-7/ADR cells; [15]) was 48.88 ± 1.13%, the Cell survival rate (MCF-7/ADR cells; [16]) was 43.68 ± 1.06% and the Cell survival rate (MCF-7/ADR cells; [17]) was 41.49 ± 0.96%. The Cell survival rate (MCF-7/ADR cells; [18]) was 34.75 ± 1.22%, the “photoactivity compared between P-1 and P-2” value (CT26 cells) was “stronger than that of P-1” and the Cell survival rate (CT26 cells; [3]) was 94.08 ± 4.27%. It also gave a Cell survival rate (CT26 cells; [4]) of 83.97 ± 3.96%, a Cell survival rate (CT26 cells; [5]) of 82.55 ± 4.77% and a Cell survival rate (CT26 cells; [6]) of 70.66 ± 4.66%. It also gave a Cell survival rate (CT26 cells; [7]) of 92.09 ± 3.56%, a Cell survival rate (CT26 cells; [8]) of 61.29 ± 2.78% and a Cell survival rate (CT26 cells; [9]) of 49.85 ± 3.55%. The Cell survival rate (CT26 cells; [10]) was 38.89 ± 3.86%, the Cell survival rate (CT26 cells; [11]) was 76.30 ± 2.28% and the Cell survival rate (CT26 cells; [12]) was 44.29 ± 2.41%. It also gave a Cell survival rate (CT26 cells; [13]) of 39.69 ± 2.27%, a Cell survival rate (CT26 cells; [14]) of 26.01 ± 2.38% and a Cell survival rate (CT26 cells; [15]) of 50.49 ± 1.03%. For the same compound, the Cell survival rate (CT26 cells; [16]) was 34.11 ± 1.02%, the Cell survival rate (CT26 cells; [17]) was 28.61 ± 1.09% and the Cell survival rate (CT26 cells; [18]) was 18.82 ± 1.01%. The Cell survival rate (7721 cells; [3]) was 102.15 ± 4.07%, the Cell survival rate (7721 cells; [4]) was 98.29 ± 4.01% and the Cell survival rate (7721 cells; [5]) was 96.77 ± 3.76%. For the same compound, the Cell survival rate (7721 cells; [6]) was 95.91 ± 3.95%, the Cell survival rate (7721 cells; [7]) was 101.37 ± 3.36% and the Cell survival rate (7721 cells; [8]) was 94.78 ± 3.88%. For the same compound, the Cell survival rate (7721 cells; [9]) was 92.15 ± 3.64%, the Cell survival rate (7721 cells; [10]) was 91.44 ± 3.73% and the Cell survival rate (7721 cells; [11]) was 100.64 ± 2.98%. It also gave a Cell survival rate (7721 cells; [12]) of 92.15 ± 3.76%, a Cell survival rate (7721 cells; [13]) of 89.23 ± 3.35% and a Cell survival rate (7721 cells; [14]) of 78.32 ± 3.19%. It also gave a Cell survival rate (7721 cells; [15]) of 98.14 ± 2.53%, a Cell survival rate (7721 cells; [16]) of 88.02 ± 3.59% and a Cell survival rate (7721 cells; [17]) of 82.25 ± 2.79%. The Cell survival rate (7721 cells; [18]) was 71.15 ± 2.91%, the “toxicity alone” value (7721 cells; alone, without irradiation) was “no significant toxicity” and the “cell toxicity with light” value (7721 cells; combination with a certain amount of light) was “stronger cell toxicity”. For the same compound, the “toxic effects of photosensitizer alone” value (4T1 transplanted tumors; 2 mg/kg alone, without irradiation, 4T1 tumor-bearing mice) was “did not show significant toxic effects”, the tumor inhibition rate (4T1 transplanted tumors; 2 mg/kg combined with light irradiation (50 J/cm^2), 4T1 tumor-bearing mice) was 23.35% and the tumor inhibition rate (4T1 transplanted tumors; 4 mg/kg combined with light irradiation (50 J/cm^2), 4T1 tumor-bearing mice) was 44.68%. For the same compound, the “photosensitizer activity on growth of 4T1 transplanted tumors” value (4T1 transplanted tumors; combined with 50 J/cm^2 irradiation) was “obvious dose-dependent activity”, the “volume of tumor relative to control group” value (4T1 transplanted tumors; combined with 50 J/cm^2 irradiation, 8th to 22nd days after treatment) was “about half the size of tumors of control group” and the solubility [1] was ~10000 µg/mL. For the same compound, the “storage stability (content change by HPLC test)” value [2] was “no content change”.
